This passage reports IC50 and Activity results from ChEMBL document CHEMBL1151208, “Cytotoxic flavonoids and alpha-pyrones from Cryptocarya obovata” (J Nat Prod, 2004).

The assay relates to KB. Description: Cytotoxicity against human KB cells. It is filed as functional, cell-based.

Molecules are shown by their SMILES. Activity calls are given as the source filed them. No cut-off for these calls is given here.

`O=C1C=CC[C@H](C[C@@H]2C[C@H]3C[C@](/C=C/c4ccccc4)(Oc4c(C(=O)/C=C/c5ccccc5)c(O)cc(O)c43)O2)O1` [OBOCHALCOLACTONE]: 5 µM corresponded to half-maximal inhibition (IC50).

Regarding `CCOC(=O)CCC[C@@H]1C[C@H]2C[C@](/C=C/c3ccccc3)(Oc3cc4c(c(O)c32)C(=O)C[C@H](c2ccccc2)O4)O1`, the result was inactive. Same read-out and setting: under `CCOC(=O)CCC[C@@H]1C[C@H]2C[C@](/C=C/c3ccccc3)(Oc3cc4c(c(O)c32)C(=O)C[C@@H](c2ccccc2)O4)O1` stands “inactive”. In turn, `O=C1C=C(/C=C/c2ccccc2)O[C@H](C[C@H]2CC=CC(=O)O2)C1` [OBOLACTONE] showed an IC50 of 3 µM.

Broadly, the IC50 is the concentration that inhibits the measured activity by half.
